Test results from PubChem BioAssay AID1963831 (Molecular Pharmacology Branch, DTP, NCI, 2024).

Tested on: 889142-216-R-J1-PDC complex spheroid viability
Assay: Anticancer human tumor 889142-216-R-J1-PDC patient-derived bladder carcinoma cell line growth inhibition [POLQ]
Settings: for IC50: curve of first compound; for viability, T/C: stronger effect = lower value
Summary of the method: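 PDC + HUVEC + MSC complex spheroids; POLQ inhibitors ± partner drugs; top conc. at/near clinical Cmax, else 10 microM (SN-38 1 microM), half-log dilutions; 37 degrees C, 5% CO2.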

[1] = second compound 0.0316 µM, first compound 0.0316 µM
[2] = second compound 0.0316 µM, first compound 0.1 µM
[3] = second compound 0.0316 µM, first compound 0.316 µM
[4] = second compound 0.0316 µM, first compound 1 µM
[5] = second compound 0.1 µM, first compound 0.0316 µM
[6] = second compound 0.1 µM, first compound 0.1 µM
[7] = second compound 0.1 µM, first compound 0.316 µM
[8] = second compound 0.1 µM, first compound 1 µM
[9] = second compound 0.316 µM, first compound 0.0316 µM
[10] = second compound 0.316 µM, first compound 0.1 µM
[11] = second compound 0.316 µM, first compound 0.316 µM
[12] = second compound 0.316 µM, first compound 1 µM
[13] = second compound 1 µM, first compound 0.0316 µM
[14] = second compound 1 µM, first compound 0.1 µM
[15] = second compound 1 µM, first compound 0.316 µM
[16] = second compound 1 µM, first compound 1 µM
[17] = second compound 3.16 µM, first compound 0.0316 µM
[18] = second compound 3.16 µM, first compound 0.1 µM
[19] = second compound 3.16 µM, first compound 0.316 µM
[20] = second compound 3.16 µM, first compound 1 µM
[21] = second compound 10 µM, first compound 0.0316 µM
[22] = second compound 10 µM, first compound 0.1 µM
[23] = second compound 10 µM, first compound 0.316 µM
[24] = second compound 10 µM, first compound 1 µM
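Further: spheroids exposed to compounds for seven days.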
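Wherever viability, T/C is given: 100% = DMSO vehicle control viability.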

## CC(=O)O[C@H]1C(=O)[C@@]2(C)[C@H]([C@H](OC(=O)c3ccccc3)[C@]3(O)C[C@H](OC(=O)[C@H](O)[C@@H](NC(=O)c4ccccc4)c4ccccc4)C(C)=C1C3(C)C)[C@]1(OC(C)=O)CO[C@@H]1C[C@@H]2O + Nc1ccc(C#CCN(C(=O)Cc2ncc(C(F)(F)F)cc2C(F)(F)F)c2ccc(F)cc2)nn1
Second compound 0.0316 µM
  IC50: 72 nM
Second compound 0.1 µM
  IC50: 907 nM
Second compound 0.316 µM
  IC50: > 3000 nM
Second compound 1 µM
  IC50: 1330 nM
Second compound 3.16 µM
  IC50: < 9.49 nM
Second compound 10 µM
  IC50: > 3000 nM
Second compound 0.0316 µM, first compound 0.00949 µM
  viability, T/C: 53.5%
Second compound 0.0316 µM, first compound 0.03 µM
  viability, T/C: 45.8%
Second compound 0.0316 µM, first compound 0.0949 µM
  viability, T/C: 51.5%
Second compound 0.0316 µM, first compound 0.3 µM
  viability, T/C: 50.9%
Second compound 0.0316 µM, first compound 0.949 µM
  viability, T/C: 49.4%
Second compound 0.0316 µM, first compound 3 µM
  viability, T/C: 43.8%
Second compound 0.1 µM, first compound 0.00949 µM
  viability, T/C: 57.1%
Second compound 0.1 µM, first compound 0.03 µM
  viability, T/C: 41.5%
Second compound 0.1 µM, first compound 0.0949 µM
  viability, T/C: 54.6%
Second compound 0.1 µM, first compound 0.3 µM
  viability, T/C: 51.2%
Second compound 0.1 µM, first compound 0.949 µM
  viability, T/C: 53.1%
Second compound 0.1 µM, first compound 3 µM
  viability, T/C: 47.1%
Second compound 0.316 µM, first compound 0.00949 µM
  viability, T/C: 53%
Second compound 0.316 µM, first compound 0.03 µM
  viability, T/C: 57.2%
Second compound 0.316 µM, first compound 0.0949 µM
  viability, T/C: 46.3%
Second compound 0.316 µM, first compound 0.3 µM
  viability, T/C: 50.3%
Second compound 0.316 µM, first compound 0.949 µM
  viability, T/C: 61.7%
Second compound 0.316 µM, first compound 3 µM
  viability, T/C: 50.9%
Second compound 1 µM, first compound 0.00949 µM
  viability, T/C: 53.7%
Second compound 1 µM, first compound 0.03 µM
  viability, T/C: 51%
Second compound 1 µM, first compound 0.0949 µM
  viability, T/C: 52%
Second compound 1 µM, first compound 0.3 µM
  viability, T/C: 50.6%
Second compound 1 µM, first compound 0.949 µM
  viability, T/C: 51.8%
Second compound 1 µM, first compound 3 µM
  viability, T/C: 48.6%
Second compound 3.16 µM, first compound 0.00949 µM
  viability, T/C: 45.2%
Second compound 3.16 µM, first compound 0.03 µM
  viability, T/C: 54%
Second compound 3.16 µM, first compound 0.0949 µM
  viability, T/C: 51.3%
Second compound 3.16 µM, first compound 0.3 µM
  viability, T/C: 46.7%
Second compound 3.16 µM, first compound 0.949 µM
  viability, T/C: 53.3%
Second compound 3.16 µM, first compound 3 µM
  viability, T/C: 57.1%
Second compound 10 µM, first compound 0.00949 µM
  viability, T/C: 55%
Second compound 10 µM, first compound 0.03 µM
  viability, T/C: 52.2%
Second compound 10 µM, first compound 0.0949 µM
  viability, T/C: 55.5%
Second compound 10 µM, first compound 0.3 µM
  viability, T/C: 59.3%
Second compound 10 µM, first compound 0.949 µM
  viability, T/C: 59.9%
Second compound 10 µM, first compound 3 µM
  viability, T/C: 53.3%

## CCc1cc2c(N3CCc4c(cc(Cn5ccnc5)cc4-c4cn(C)nc4C(F)(F)F)C3=O)ccnc2c(OC)n1 + COC1C(OC(N)=O)C(O)C(Oc2ccc3c(O)c(NC(=O)c4ccc(O)c(CC=C(C)C)c4)c(=O)oc3c2C)OC1(C)C
Second compound 0.0316 µM
  IC50: > 10000 nM
Second compound 0.1 µM
  IC50: > 10000 nM
Second compound 0.316 µM
  IC50: > 10000 nM
Second compound 1 µM
  IC50: > 10000 nM
Second compound 3.16 µM
  IC50: > 10000 nM
Second compound 10 µM
  IC50: > 10000 nM
[1]
  viability, T/C: 120%
[2]
  viability, T/C: 109%
[3]
  viability, T/C: 119%
[4]
  viability, T/C: 95.5%
Second compound 0.0316 µM, first compound 3.16 µM
  viability, T/C: 69.1%
Second compound 0.0316 µM, first compound 10 µM
  viability, T/C: 83%
[5]
  viability, T/C: 101%
[6]
  viability, T/C: 117%
[7]
  viability, T/C: 98.3%
[8]
  viability, T/C: 111%
Second compound 0.1 µM, first compound 3.16 µM
  viability, T/C: 105%
Second compound 0.1 µM, first compound 10 µM
  viability, T/C: 62%
[9]
  viability, T/C: 105%
[10]
  viability, T/C: 106%
[11]
  viability, T/C: 102%
[12]
  viability, T/C: 115%
Second compound 0.316 µM, first compound 3.16 µM
  viability, T/C: 96.1%
Second compound 0.316 µM, first compound 10 µM
  viability, T/C: 64.3%
[13]
  viability, T/C: 112%
[14]
  viability, T/C: 130%
[15]
  viability, T/C: 107%
[16]
  viability, T/C: 102%
Second compound 1 µM, first compound 3.16 µM
  viability, T/C: 83.9%
Second compound 1 µM, first compound 10 µM
  viability, T/C: 77.7%
[17]
  viability, T/C: 95.6%
[18]
  viability, T/C: 106%
[19]
  viability, T/C: 117%
[20]
  viability, T/C: 94.2%
Second compound 3.16 µM, first compound 3.16 µM
  viability, T/C: 95%
Second compound 3.16 µM, first compound 10 µM
  viability, T/C: 77.9%
[21]
  viability, T/C: 122%
[22]
  viability, T/C: 103%
[23]
  viability, T/C: 112%
[24]
  viability, T/C: 109%
Second compound 10 µM, first compound 3.16 µM
  viability, T/C: 91.6%
Second compound 10 µM, first compound 10 µM
  viability, T/C: 67.3%

## COc1cccc(OCCCN)c1-c1cc(Nc2cnc(C#N)cn2)n[nH]1 + Cc1cccc(N(C)C(=O)C2C(O)CCN2c2nc(C)cc(C(F)(F)F)c2C#N)c1
Second compound 0.0316 µM
  IC50: 93.9 nM
Second compound 0.1 µM
  IC50: 83 nM
Second compound 0.316 µM
  IC50: 29.2 nM
Second compound 1 µM
  IC50: 35.6 nM
Second compound 3.16 µM
  IC50: 143 nM
Second compound 10 µM
  IC50: 27.4 nM
Second compound 0.0316 µM, first compound 0.00316 µM
  viability, T/C: 94.4%
Second compound 0.0316 µM, first compound 0.01 µM
  viability, T/C: 65.8%
[1]
  viability, T/C: 53.7%
[2]
  viability, T/C: 52.1%
[3]
  viability, T/C: 49%
[4]
  viability, T/C: 45%
Second compound 0.1 µM, first compound 0.00316 µM
  viability, T/C: 93.2%
Second compound 0.1 µM, first compound 0.01 µM
  viability, T/C: 95.6%
[5]
  viability, T/C: 59.3%
[6]
  viability, T/C: 52.3%
[7]
  viability, T/C: 49.4%
[8]
  viability, T/C: 42.9%
Second compound 0.316 µM, first compound 0.00316 µM
  viability, T/C: 118%
Second compound 0.316 µM, first compound 0.01 µM
  viability, T/C: 62.3%
[9]
  viability, T/C: 48.2%
[10]
  viability, T/C: 50.6%
[11]
  viability, T/C: 50.5%
[12]
  viability, T/C: 39.7%
Second compound 1 µM, first compound 0.00316 µM
  viability, T/C: 110%
Second compound 1 µM, first compound 0.01 µM
  viability, T/C: 62%
[13]
  viability, T/C: 50.7%
[14]
  viability, T/C: 51.7%
[15]
  viability, T/C: 56.8%
[16]
  viability, T/C: 38.2%
Second compound 3.16 µM, first compound 0.00316 µM
  viability, T/C: 81%
Second compound 3.16 µM, first compound 0.01 µM
  viability, T/C: 73.6%
[17]
  viability, T/C: 63.8%
[18]
  viability, T/C: 46.2%
[19]
  viability, T/C: 49.8%
[20]
  viability, T/C: 51.8%
Second compound 10 µM, first compound 0.00316 µM
  viability, T/C: 74.8%
Second compound 10 µM, first compound 0.01 µM
  viability, T/C: 73.5%
[21]
  viability, T/C: 46.6%
[22]
  viability, T/C: 48.8%
[23]
  viability, T/C: 42.7%
[24]
  viability, T/C: 43.9%
